Results: paper PMC3968008 (PLoS ONE, 2014)
Values after ≈ are worked out from the molar mass of the structure shown. “Also recorded” adds a separate entry of the source. Ends that are not written are not given here.

Legend:
Bacillus subtilis = experiment: microbe, parasite or virus in culture; assay type: cell-based; settings: Bacillus subtilis; aerobe; broth microdilution; individual data from two independent experiments
Protocol: (§1) Antimicrobial activity of the peptides was evaluated against Escherichia coli JCM 5491, Pseudomonas aeruginosa JCM 6119, Staphylococcus aureus JCM2874, Salmonella Typhimurium JCM1652, Acinetobacter baumannii JCM6841, Bacteroides fragilis JCM11019, Fusobacterium nucleatum JCM11025, Penicillium glabrum JCM22534, Fusarium solani JCM11383, Alternaria alternata JCM5800 (RIKEN, A research institution for basic and applied science in Japan), Micrococcus luteus NBRC13867, Bacillus subtilis NBRC3134, Propionibacterium acnes NBRC107605, Trichophyton mentagrophytes NBRC6124, Trichophyton rubrum NBRC9185, Candida krusei NBRC1395 (National Institute of Technology and Evaluation, Tokyo, Japan), Salmonella Enteritidis IID604 (The Institute of Medical Science, The University of Tokyo, Tokyo, Japan). […] Serial two-fold dilutions of peptide were added to 0.1 ml of medium containing each type of bacteria and fungi at concentrations of 0.4×10^4 – 5×10^4 CFU/ml. The plates were incubated at 37°C with vigorous shaking for 24 or 48 hours. The MICs were determined as the lowest concentrations of peptide that inhibited visible bacterial growth.

Bacteroides fragilis = experiment: microbe, parasite or virus in culture; assay type: cell-based; settings: Bacteroides fragilis; anaerobe; broth microdilution; individual data from two independent experiments
Protocol: (§2) Antimicrobial activity of the peptides was evaluated against Escherichia coli JCM 5491, Pseudomonas aeruginosa JCM 6119, Staphylococcus aureus JCM2874, Salmonella Typhimurium JCM1652, Acinetobacter baumannii JCM6841, Bacteroides fragilis JCM11019, Fusobacterium nucleatum JCM11025, Penicillium glabrum JCM22534, Fusarium solani JCM11383, Alternaria alternata JCM5800 (RIKEN, A research institution for basic and applied science in Japan), Micrococcus luteus NBRC13867, Bacillus subtilis NBRC3134, Propionibacterium acnes NBRC107605, Trichophyton mentagrophytes NBRC6124, Trichophyton rubrum NBRC9185, Candida krusei NBRC1395 (National Institute of Technology and Evaluation, Tokyo, Japan), Salmonella Enteritidis IID604 (The Institute of Medical Science, The University of Tokyo, Tokyo, Japan). Additionally, the clinical isolates (Drug-sensitive/resistant Pseudomonas aeruginosa and Staphylococcus aureus, Osaka University Hospital) and multidrug-resistant Acinetobacter baumannii (ATCC BAA-1605) were used. […] Serial two-fold dilutions of peptide were added to 0.1 ml of medium containing each type of bacteria and fungi at concentrations of 0.4×10^4 – 5×10^4 CFU/ml. The plates were incubated at 37°C with vigorous shaking for 24 or 48 hours. The MICs were determined as the lowest concentrations of peptide that inhibited visible bacterial growth.

Acinetobacter baumannii = assay type: cell-based; settings: aerobe; broth microdilution; individual data from two independent experiments
Protocol: as §1

Salmonella Typhimurium = experiment: microbe, parasite or virus in culture; assay type: cell-based; settings: Salmonella enterica, TYPHIMURIUM; aerobe; broth microdilution; individual data from two independent experiments
Protocol: as §1

fungi = experiment: Antimicrobial spectrum, fungi; assay type: cell-based
Protocol: as §1

Fusobacterium nucleatum = experiment: MIC, broth microdilution; assay type: cell-based; settings: anaerobe, individual data from two independent experiments
Protocol: as §1

Salmonella Enteritidis = experiment: microbe, parasite or virus in culture; assay type: cell-based; settings: Salmonella enterica, ENTERITIDIS; aerobe; broth microdilution; individual data from two independent experiments
Protocol: as §1

Micrococcus luteus = experiment: microbe, parasite or virus in culture; assay type: cell-based; settings: Micrococcus luteus; aerobe; broth microdilution; individual data from two independent experiments
Protocol: as §2

P2X7 = biological target: T1, P2X7 (Homo sapiens, UniProt Q99572); experiment: Contribution of P2X7 receptors to the effect of SR-0379; assay type: cell-based; settings: data not shown
T1 construct: we also examined the contribution of P2X7 receptors to the effect of SR-0379; endogenous in cells; probably NHDFs (human dermal fibroblasts, Kurabo)
T1 sequence (Q99572 whole entry): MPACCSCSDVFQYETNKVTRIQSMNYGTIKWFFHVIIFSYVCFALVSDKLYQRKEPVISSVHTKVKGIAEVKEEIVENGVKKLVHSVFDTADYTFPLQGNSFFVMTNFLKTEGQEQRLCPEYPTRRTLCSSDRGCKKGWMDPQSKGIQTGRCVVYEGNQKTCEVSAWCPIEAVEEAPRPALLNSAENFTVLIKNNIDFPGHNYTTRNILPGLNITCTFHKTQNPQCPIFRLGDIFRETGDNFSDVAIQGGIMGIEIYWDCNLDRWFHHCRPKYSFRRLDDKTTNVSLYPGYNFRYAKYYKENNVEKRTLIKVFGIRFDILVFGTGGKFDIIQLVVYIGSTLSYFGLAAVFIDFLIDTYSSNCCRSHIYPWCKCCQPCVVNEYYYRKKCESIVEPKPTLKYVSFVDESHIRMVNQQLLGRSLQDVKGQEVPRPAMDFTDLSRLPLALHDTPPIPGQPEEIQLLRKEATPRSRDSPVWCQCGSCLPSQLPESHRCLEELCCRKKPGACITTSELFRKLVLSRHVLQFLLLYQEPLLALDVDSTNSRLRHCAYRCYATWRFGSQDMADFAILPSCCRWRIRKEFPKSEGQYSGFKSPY

pooled rat serum = settings: 37°C, up to 60 minutes
[1] = peptide 500 μg/ml, 37°C, 3 or 10 minutes, acetonitrile/0.1% trifluoroacetate precipitation, HPLC, N = 2 (Fig. 1E)
Protocol: In vitro stability studies were performed by incubating the peptide with rat or human serum. Human sera (Pool of donors, 5 men and 5 women) were commercially purchased from KAC (Kyoto, Japan), which has been permitted only for experiment. We don't use the human biological specimens without the documented informed consent. Rat sera were collected from rats. The peptide (500 μg/ml) was added to serum (300 μL) and incubated at 37°C. A part of samples (90 μL) were taken, and the proteins were precipitated with acetonitrile containing 0.1% trifluoroacetate (200 μL). The precipitate was separated by centrifugation. The supernatants were analyzed by high-performance liquid chromatography (HPLC).

E. coli (ATCC25922) = experiment: microbe, parasite or virus in culture; assay type: cell-based, Escherichia coli; settings: for MIC E. coli (ATCC25922): ATCC25922, 48 h; for MIC: Escherichia coli, ATCC25922, broth microdilution, 37°C, 24 or 48 hours, individual data from two independent experiments
Protocol: as §2

[2] = test system: interleukin-8 (IL-8) mRNA in NHDFs; experiment: IL-8 mRNA expression, real-time RT-PCR; assay type: cell-based, human; settings: Wortmannin 100 nM, SR-0379 10 μg/ml
Protocol: Expression of the human IL-8 mRNA was measured using real-time reverse transcription polymerase chain reaction (RT-PCR). Total RNA was extracted from the tissue samples using ISOGEN reagent (NIPPON GENE, Toyama, Japan). Complementary DNA (cDNA) was synthesized using the Thermo Script RT-PCR System (Invitrogen, Carlsbad, CA). Relative gene-copy numbers for IL-8 mRNA and glyceraldehyde-3-phosphate dehydrogenase (GAPDH) were determined by real-time RT-PCR using TaqMan Gene Expression Assays (IL-8: Hs00174103_m1; GAPDH: 4352934). Absolute gene-copy numbers were normalized to GAPDH using a standard curve.

Trichophyton rubrum = experiment: microbe, parasite or virus in culture; assay type: cell-based; settings: Trichophyton rubrum; fungus; broth microdilution; individual data from two independent experiments
Protocol: as §2

bacteria = experiment: Antimicrobial spectrum, bacteria; assay type: cell-based
Protocol: as §1

Candida krusei = experiment: microbe, parasite or virus in culture; assay type: cell-based; settings: Pichia kudriavzevii; fungus; broth microdilution; individual data from two independent experiments
Protocol: as §2

Alternaria alternata = experiment: microbe, parasite or virus in culture; assay type: cell-based; settings: Alternaria alternata; fungus; broth microdilution; individual data from two independent experiments
Protocol: as §2

[3] = test system: Trichophyton mentagrophytes; experiment: microbe, parasite or virus in culture; assay type: cell-based; settings: Trichophyton mentagrophytes; fungus; broth microdilution; individual data from two independent experiments
Protocol: as §2

Penicillium glabrum = experiment: MIC, broth microdilution; assay type: cell-based; settings: fungus, individual data from two independent experiments
Protocol: as §1

Fusarium solani = experiment: microbe, parasite or virus in culture; assay type: cell-based; settings: Fusarium solani; fungus; broth microdilution; individual data from two independent experiments
Protocol: as §2

S. aureus (ATCC29213) = experiment: microbe, parasite or virus in culture; assay type: cell-based, Staphylococcus aureus; settings: broth microdilution, 37°C, 24 or 48 hours, individual data from two independent experiments; for MIC: Staphylococcus aureus, ATCC29213
Protocol: as §2

NHDFs = NHDFs proliferation, WST-1 assay; assay type: cell-based, human; settings: preincubation with Akt inhibitor IV 1 μM (1 hour) or rapamycin 1 nM (2 hours), then SR-0379
Protocol: HUVECs, NHDFs and NHEKs were purchased from Kurabo (Osaka, Japan). The endothelial cells were maintained in HuMedia EB2 and the fibroblasts were maintained in Medium 106S. Both media were supplemented with 1% fetal bovine serum (FBS) as described previously. The epidermal keratinocytes were maintained in HuMedia KB2. Cells were incubated at 37°C in a humidified atmosphere of 95% air/5% CO2 with exchange of medium every 2 days. HUVECs were cultured in 96-well plates at a density of 10,000 cells/well and incubated for 48 hours at 37°C with AG30/5C or FGF2 (recombinant human FGF basic, R&D systems, Inc., Minneapolis, MN). The proliferation of HUVECs, NHDFs and NHEKs was analyzed using a WST-1 assay (Dojindo, Kumamoto, Japan). Tubule formation assay has recently been developed in which endothelial cells are co-cultured with fibroblasts. […] The tube-like structures were measured in terms of total tube length with the software (Angiogenesis Image Analyzer, Kurabo, Osaka Japan). Cell migration was evaluated using an Oris cell migration assay kit (Platypus Technologies, LLC., Madison, WI) according to the manufacturer's instructions. […] The number of cells that migrated into the detection zone was measured using a plate reader. […] At each time point, the lattices were digitally photographed from a fixed distance, and their areas were calculated using image analysis software. […]

[4] = test system: P. aeruginosa (ATCC27853); experiment: MIC, broth microdilution; assay type: cell-based, Pseudomonas aeruginosa; set-up: MIC P. aeruginosa (ATCC27853): unit not given beside the values; settings: 24 or 48 hours, individual data from two independent experiments
[5] = pooled rat serum, 37°C, 10 and 60 minutes, MALDI-TOF MS; major metabolites 20 aa, 18 aa, 17 aa and 12 aa
Protocol: Rat sera were collected from rats. […] Samples were collected before incubation, after 10 minutes of incubation and after 60 minutes of incubation and were precipitated by the addition of an equivalent amount of acetonitrile containing 0.1% trifluoroacetate. The samples were centrifuged, and the supernatants were purified using ZipTip m-C18 (Millipore, MA). Sample solution was mixed with matrix solution (α-cyano 4-hydroxy cinnamic acid).

## O=C(N[C@H](CO)[C@H](O)c1ccc([N+](=O)[O-])cc1)C(Cl)Cl [Chloramphenicol, reference compound]
Bacillus subtilis
  MIC: 4 µg/mL (≈ 12.4 µM)
Bacteroides fragilis
  MIC: 1 µg/mL (≈ 3.09 µM)
Acinetobacter baumannii
  MIC Acinetobacter baumannii: 16/32
Salmonella Typhimurium
  MIC: 4 µg/mL (≈ 12.4 µM)
fungi
  Inhibitory activity against fungi: failed to exhibit an inhibitory activity
Fusobacterium nucleatum
  MIC: 0.25 µg/mL (≈ 0.774 µM)
Salmonella Enteritidis
  MIC: 4 µg/mL (≈ 12.4 µM)
Micrococcus luteus
  MIC: 1 µg/mL (≈ 3.09 µM)

## CCOc1ccc(Nc2ccc(/C(=C3C=C/C(=[N+](/CC)Cc4cccc(S(=O)(=O)[O-])c4)C=C/3C)c3ccc(N(CC)Cc4cccc(S(=O)(=O)O)c4)cc3C)cc2)cc1 [Brilliant Blue G]
P2X7
  Inhibition of the effects of SR-0379 by P2X7 antagonist: failed to inhibit

## MLKLIFLHRLKRMRKRLKRKLRFWHRKRYK
Pooled rat serum
  fragment found: MLKLIFLHRL KRMRKRLKRK (SR-0007), major; also recorded: MLKLIFLHRL KRMRKRLK, major; also recorded: MLKLIFLHRL KRMRKRL, major; also recorded: LHRL KRMRKRLK, major

## MLKLIFLHRLKRMRKRLKRK [SR-0007]
[1]; human serum (pool of 5 men and 5 women) 300 μL
  Stability in human serum: rapidly degraded
[1]; rat serum 300 μL
  Stability in rat serum: rapidly degraded
E. coli (ATCC25922)
  MIC E. coli (ATCC25922): 64 µg/mL

## COC[C@H]1OC(=O)c2coc3c2[C@@]1(C)C1=C(C3=O)[C@@H]2CCC(=O)[C@@]2(C)C[C@H]1OC(C)=O [Wortmannin]
[2]
  Effect of pretreatment on SR-0379-induced IL-8 mRNA expression: attenuated

## C[C@@H]1[C@H](O)[C@@H](C)/C=C/C=C/C=C/C=C/C=C/C=C/C=C/[C@H](O[C@@H]2O[C@H](C)[C@@H](O)[C@H](N)[C@@H]2O)C[C@@H]2O[C@](O)(C[C@@H](O)C[C@@H](O)[C@H](O)CC[C@@H](O)C[C@@H](O)CC(=O)O[C@H]1C)C[C@H](O)[C@H]2C(=O)O [Amphotericin B, reference compound]
Trichophyton rubrum
  MIC: 0.125 µg/mL (≈ 0.135 µM)
bacteria
  Inhibitory activity against bacteria: failed to exhibit an inhibitory activity
Candida krusei
  MIC: 2 µg/mL (≈ 2.16 µM)
Alternaria alternata
  MIC: 1 µg/mL (≈ 1.08 µM)
[3]
  MIC: 0.125 µg/mL (≈ 0.135 µM)
Penicillium glabrum
  MIC: 0.125 µg/mL (≈ 0.135 µM)
Fusarium solani
  MIC: 1 µg/mL (≈ 1.08 µM)

## NC[C@H]1O[C@H](O[C@H]2[C@H](O)[C@@H](O[C@H]3O[C@H](CO)[C@@H](O)[C@H](N)[C@H]3O)[C@H](N)C[C@@H]2N)[C@H](N)C[C@@H]1O [Tobramycin, reference compound]
S. aureus (ATCC29213)
  MIC: 0.12 to 1 µg/mL (≈ 0.257 to 2.14 µM)
E. coli (ATCC25922)
  MIC: 0.25 to 1 µg/mL (≈ 0.535 to 2.14 µM)

## CO[C@H]1C[C@@H]2CC[C@@H](C)[C@@](O)(O2)C(=O)C(=O)N2CCCC[C@H]2C(=O)O[C@H]([C@H](C)C[C@@H]2CC[C@@H](O)[C@H](OC)C2)CC(=O)[C@H](C)/C=C(\C)[C@@H](O)[C@@H](OC)C(=O)[C@H](C)C[C@H](C)/C=C/C=C/C=C/1C [Rapamycin]
NHDFs
  Effect on SR-0379-induced cell proliferation: attenuated

## C[C@@H](O)[C@H]1C(=O)N2C(C(=O)O)=C(S[C@@H]3CN[C@H](C(=O)N(C)C)C3)[C@H](C)[C@H]12 [Meropenem, reference compound]
S. aureus (ATCC29213)
  MIC: 0.03 to 0.12 µg/mL (≈ 0.0782 to 0.313 µM)
E. coli (ATCC25922)
  MIC: 0.008 to 0.06 µg/mL (≈ 0.0209 to 0.156 µM)
[4]; Pseudomonas aeruginosa, ATCC27853, 37°C
  MIC: 0.25 to 1 µg/mL (≈ 0.652 to 2.61 µM)

## CC[n+]1c(/C=C/N(C)c2ccccc2)n(-c2ccccc2)c2ccc(-c3nc4ccccc4s3)cc21.[I-] [Akt inhibitor IV]
NHDFs
  Effect on SR-0379-induced cell proliferation: attenuated

## Cc1onc(-c2ccccc2)c1C(=O)N[C@@H]1C(=O)N2[C@@H]1SC(C)(C)[C@@H]2C(=O)O [Oxacillin]
S. aureus (ATCC29213)
  MIC: 0.12 to 0.5 µg/mL (≈ 0.299 to 1.25 µM)

## MLKLIFLHRLKRMRKRLKRKLRLWHRKRYK [AG30/5C]
S. aureus (ATCC29213)
  MIC S. aureus (ATCC29213): 16/32
[5]
  Metabolic stability, cleavage in rat serum: cleaved by endopeptidases and exopeptidase at multiple sites
E. coli (ATCC25922)
  MIC E. coli (ATCC25922): 32 µg/mL
[4]; 37°C
  MIC P. aeruginosa (ATCC27853): 16/32
